In ChEMBL document CHEMBL5338795, “Novel Triazoles with Potent and Broad-Spectrum Antifungal Activity In Vitro and In Vivo” (J Med Chem, 2023):
≈ marks a conversion by molar mass, not a printed value.

Tested on: Candida albicans
Test: Antifungal activity against Candida albicans SC5314 assessed as reduction in fungal growth incubated for 24 hrs by CLSI based microdilution analysis
Type: functional

Row | MIC80 [µg/mL] | SMILES
1 | 0.25 (≈ 0.524 µM) | O=C(c1cccc2ccccc12)N1CCN(CC(O)(Cn2cncn2)c2ccc(F)cc2F)CC1 (stereo unspecified)
2 | 0.062 (≈ 0.125 µM) | COc1ccc2c(cnn2CCN2CCN(CC(O)(Cn3cncn3)c3ccc(F)cc3F)CC2)c1 (stereo unspecified)
3 | 0.5 (≈ 0.815 µM) | OC(CN1CCN(CCCCCCCCCCn2ccc3cc(Cl)ccc32)CC1)(Cn1cncn1)c1ccc(F)cc1F (stereo unspecified)
4 | 0.125 (≈ 0.208 µM) | OC(CN1CCN(CCCCCCn2ccc3cc(Br)ccc32)CC1)(Cn1cncn1)c1ccc(F)cc1F (stereo unspecified)
5 | 25 (≈ 74.1 µM) | CN1CCN(CC(O)(Cn2cncn2)c2ccc(F)cc2F)CC1 (stereo unspecified)
6 | 0.25 (≈ 0.417 µM) | OC(CN1CCN(CCCCCCCCCn2ccc3cc(Cl)ccc32)CC1)(Cn1cncn1)c1ccc(F)cc1F (stereo unspecified)
7 | 0.25 (≈ 0.507 µM) | COc1ccc(S(=O)(=O)N2CCN(CC(O)(Cn3cncn3)c3ccc(F)cc3F)CC2)cc1 (stereo unspecified)
8 | 0.25 (≈ 0.38 µM) | OC(CN1CCN(CCCCCCCCCCn2ccc3cc(Br)ccc32)CC1)(Cn1cncn1)c1ccc(F)cc1F (stereo unspecified)
9 | 0.062 (≈ 0.133 µM) | OC(CN1CCN(CCn2ccc3cccnc32)CC1)(Cn1cncn1)c1ccc(F)cc1F (stereo unspecified)
10 | 0.062 (≈ 0.124 µM) | OC(CN1CCN(CCn2ccc3cc(Cl)cnc32)CC1)(Cn1cncn1)c1ccc(F)cc1F (stereo unspecified)
11 | 0.25 (≈ 0.42 µM) | OC(CN1CCN(CCn2c3ccccc3c3cc(Br)ccc32)CC1)(Cn1cncn1)c1ccc(F)cc1F (stereo unspecified)
12 | 0.125 (≈ 0.213 µM) | OC(CN1CCN(CCCCCn2ccc3cc(Br)ccc32)CC1)(Cn1cncn1)c1ccc(F)cc1F (stereo unspecified)
13 | 0.25 (≈ 0.489 µM) | O=c1ccc2ccc(OCCN3CCN(CC(O)(Cn4cncn4)c4ccc(F)cc4F)CC3)cc2o1 (stereo unspecified)
14 | 0.25 (≈ 0.53 µM) | O=C(c1ccc2c(c1)OCO2)N1CCN(CC(O)(Cn2cncn2)c2ccc(F)cc2F)CC1 (stereo unspecified)
15 | 0.125 (≈ 0.262 µM) | Cc1ccc(S(=O)(=O)N2CCN(CC(O)(Cn3cncn3)c3ccc(F)cc3F)CC2)cc1 (stereo unspecified)
16 | 0.5 (≈ 0.821 µM) | COc1ccc2c(ccn2CCCCCCCCCCN2CCN(CC(O)(Cn3cncn3)c3ccc(F)cc3F)CC2)c1 (stereo unspecified)
17 | 0.25 (≈ 0.523 µM) | OC(CN1CCN(CCc2cccc3ccccc23)CC1)(Cn1cncn1)c1ccc(F)cc1F (stereo unspecified)
18 | 0.25 (≈ 0.452 µM) | COc1ccc2c(ccn2CCCCCCN2CCN(CC(O)(Cn3cncn3)c3ccc(F)cc3F)CC2)c1 (stereo unspecified)
19 | 0.125 (≈ 0.26 µM) | O=S(=O)(c1ccc(F)cc1)N1CCN(CC(O)(Cn2cncn2)c2ccc(F)cc2F)CC1 (stereo unspecified)
20 | 0.031 (≈ 0.0664 µM) | OC(CN1CCN(CCn2ccc3ccccc32)CC1)(Cn1cncn1)c1ccc(F)cc1F (stereo unspecified)
21 | 0.031 (≈ 0.0624 µM) | COc1ccc2c(ccn2CCN2CCN(CC(O)(Cn3cncn3)c3ccc(F)cc3F)CC2)c1 (stereo unspecified)
22 | 0.062 (≈ 0.125 µM) | O=C(c1cc2ccccc2oc1=O)N1CCN(CC(O)(Cn2cncn2)c2ccc(F)cc2F)CC1 (stereo unspecified)
23 | 0.125 (≈ 0.242 µM) | OC(CN1CCN(CCn2c3ccccc3c3ccccc32)CC1)(Cn1cncn1)c1ccc(F)cc1F (stereo unspecified)
24 | 50 (≈ 107 µM) | O[C@](CN1CCN(CCn2ncc3ccccc32)CC1)(Cn1cncn1)c1ccc(F)cc1F
25 | 0.062 (≈ 0.133 µM) | OC(CN1CCN(CCn2ncc3ccccc32)CC1)(Cn1cncn1)c1ccc(F)cc1F (stereo unspecified)

Row | SMILES | MIC80 [µg/mL]
26 | O[C@](CN1CCN(CCn2ccc3cc(Br)ccc32)CC1)(Cn1cncn1)c1ccc(F)cc1F | 25 (≈ 45.8 µM)
